Results as given in patent US20100256109A1, “Azetidines As EP2 Antagonists” (priority 2007, published 2010).

Biological target: T1, recombinant human EP-2 receptor (Homo sapiens, UniProt P43116)
T1 construct: stably transfected with full length cDNA encoding human Prostaglandin E2; expressed in transfected cells
Test: In vitro antagonist potency against recombinant human prostaglandin E2 (EP-2) receptor in CHO cells (cAMP)
Format: cell-based
Details: CHO cells expressing recombinant human EP-2 receptor, stimulated with PGE2 5 nM; cAMP readout; Ki from IC50 by Cheng-Prusoff; read-out: EP2 Ki
Experimental: 1.0 Measurement of In Vitro Antagonist Potency (IC50) of Compounds Against Recombinant Human Prostaglandin E2 Receptor in CHO Cells.
The prostaglandin E2 (EP-2) receptor is Gs coupled and agonism of the receptor by PGE2 results in activation of intracellular adenylate cyclase enzymes that synthesise the second messenger signalling molecule, adenosine 3′,5′-cyclic monophosphate (cAMP). CHO cells expressing the recombinant human EP-2 receptor are stimulated with PGE2 (5 nM) equivalent to approximately […] values to give the maximal cAMP signal. Decreases in cAMP levels following treatment of stimulated recombinant EP-2 cells with potential antagonist compounds were measured and potency (IC50) calculated as follows.
A Chinese hamster ovary (CHO) cell line stably transfected with full length cDNA encoding human Prostaglandin E2 was established using standard molecular biology methods. Test compounds were dissolved in dimethyl sulphoxide (DMSO) at 4 mM. 11 point half log unit increment dilution series of test compound were prepared in DMSO then diluted 1 in 40 in a buffer comprised of phosphate buffered saline (PBS) and 0.05% pluronic F-127 surfactant. Freshly cultured cells at 80-90% confluence were harvested and re-suspended in 90% growth media/10% DMSO. The cells were frozen using a planar freezer and stored in frozen aliquots in cryovials in liquid nitrogen until the day of the experiment. A vial of cells was defrosted in a 37° C. water bath for 2 min, then transferred to 10 ml of Dulbecco's Modified Eagle's Medium (DMEM). The cells were then centrifuged for 5 min at 1000 g and the pellet re-suspended at 1,000,000 cells/ml in DMEM. 5,000 cells (5 ul) were added to 5 ul of the compound dilution series in a 384 well assay plate and pre-incubated for 30 min at 37° C. 5 ul of agonist (15 nM PGE2 in PBS to give 5 nM FAC) was added and plates further incubated for 90 min at 37° C. The relative cAMP concentration in each well was then measured using a β-galactosidase enzyme fragment complementation method purchased in kit form as the Discoverx cAMP II kit from GE Healthcare, UK. […] Sigmoidal curves were fitted to plots of log10 inhibitor concentration vs. percent effect. IC50 estimates were determined as the concentration of test compound giving an effect half way between the bottom and top asymptotes of the sigmoidal dose response curve. Each experiment included an IC50 determination for the literature compound as a standard to track assay consistency and allow fair comparison between values obtained in different experiments. The EC50 of PGE2 is used in combination with the ligand concentration in the assay to determine Ki values for antagonist dose responses using the Cheng-Prusoff equation. Consequently an agonist dose response curve is carried out for each experiment using the same incubation as the antagonist plate.

T1 sequence (P43116 whole entry): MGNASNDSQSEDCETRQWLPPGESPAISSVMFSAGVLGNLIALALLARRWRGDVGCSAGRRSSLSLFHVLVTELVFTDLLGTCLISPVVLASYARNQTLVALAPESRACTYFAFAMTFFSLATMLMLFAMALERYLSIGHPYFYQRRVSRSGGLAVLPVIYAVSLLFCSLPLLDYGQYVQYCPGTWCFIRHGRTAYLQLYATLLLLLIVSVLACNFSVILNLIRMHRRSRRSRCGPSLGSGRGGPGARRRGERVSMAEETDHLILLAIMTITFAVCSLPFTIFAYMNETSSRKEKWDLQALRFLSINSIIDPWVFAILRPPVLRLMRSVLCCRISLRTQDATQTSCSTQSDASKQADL

| Ki | SMILES |
| --- | --- |
| 440 nM | CCc1ccccc1NC(=O)N1CC(Cn2nnc(-c3cccc(F)c3)n2)(C(=O)O)C1 [Example 69] |
| 176 nM | COc1cccc(C(=O)N2CC(Cn3nnc(-c4ccc(C(C)(C)C)cc4)n3)(C(=O)O)C2)c1 [Example 56] |
| 39.9 nM | O=C(c1ccc(F)cc1)N1CC(Cn2nnc(-c3cccc(Cl)c3Cl)n2)(C(=O)O)C1 [Example 39] |
| 7.47 nM | O=C(c1ccc(Cl)cc1)N1CC(Cn2nnc(-c3c(F)cccc3F)n2)(C(=O)O)C1 [Example 61] |
| 20 nM | O=C(c1ccc(F)cc1)N1CC(Cn2nnc(-c3ccc(Cl)cc3)n2)(C(=O)O)C1 [Example 25] |
| 1.45 nM | Cc1ccc(-c2nnn(CC3(C(=O)O)CN(C(=O)c4ccc(Cl)cc4)C3)n2)cc1 [Example 4] |
| 25.2 nM | COc1ccc(C(=O)N2CC(Cn3nnc(-c4ccc(OC)c(OC)c4)n3)(C(=O)O)C2)cc1 [Example 62] |
| 442 nM | COc1ccccc1-c1nnn(CC2(C(=O)O)CN(C(=O)c3ccc(F)cc3)C2)n1 [Example 16] |
| 1.37 nM | CCc1ccc(-c2nnn(CC3(C(=O)O)CN(C(=O)c4ccc(F)cc4)C3)n2)cc1 [Example 23] |
| 66.8 nM | O=C(c1ccc(F)cc1)N1CC(Cn2nnc(-c3ccc(F)c(F)c3)n2)(C(=O)O)C1 [Example 41] |
| 453 nM | COc1ccc(-c2nnn(CC3(C(=O)O)CN(C(=O)c4cccc(F)c4)C3)n2)cc1OC [Example 55] |
| 0.864 nM | O=C(c1ccc(Cl)cc1)N1CC(Cn2nnc(-c3ccc(Cl)c(Cl)c3)n2)(C(=O)O)C1 [Example 9] |
| 1960 nM | O=C(c1c(F)cccc1F)N1CC(Cn2nnc(Cc3ccc(C(F)(F)F)cc3)n2)(C(=O)O)C1 [Example 63] |
| 230 nM | COc1cc(OC)cc(C(=O)N2CC(Cn3nnc(-c4c(F)cccc4F)n3)(C(=O)O)C2)c1 [Example 65] |
| 57.9 nM | Cc1ccc(C(=O)N2CC(Cn3nnc(-c4c(F)cccc4F)n3)(C(=O)O)C2)cc1 [Example 59] |
| 152 nM | O=C(c1ccccc1)N1CC(Cn2nnc(-c3cccc(F)c3)n2)(C(=O)O)C1 [Example 47] |
| 538 nM | CCOc1ccccc1C(=O)N1CC(Cn2nnc(-c3ccccc3)n2)(C(=O)O)C1 [Example 51] |
| 3.51 nM | O=C(c1ccc(Cl)cc1)N1CC(Cn2nnc(-c3cccc(Cl)c3)n2)(C(=O)O)C1 [Example 2] |
| 519 nM | O=C(Nc1cccc(F)c1)N1CC(Cn2nnc(-c3ccc(Cl)s3)n2)(C(=O)O)C1 [Example 71] |

| Ki | SMILES |
| --- | --- |
| 11.1 nM | O=C(c1ccc(Cl)cc1)N1CC(Cn2nnc(-c3cccc(F)c3)n2)(C(=O)O)C1 [Example 3] |
| 783 nM | CCOc1ccccc1C(=O)N1CC(Cn2nnc(Cc3c(F)cccc3Cl)n2)(C(=O)O)C1 [Example 54] |
| 27 nM | O=C(c1ccc(F)cc1)N1CC(Cn2nnc(-c3ccc(Cl)cc3Cl)n2)(C(=O)O)C1 [Example 38] |
| 645 nM | O=C(c1ccc(Cl)cc1)N1CC(Cn2nnc(Cc3ccc(C(F)(F)F)cc3)n2)(C(=O)O)C1 [Example 60] |
| 2.42 nM | O=C(c1ccc(Cl)cc1)N1CC(Cn2nnc(-c3ccc(Cl)cc3)n2)(C(=O)O)C1 [Example 6] |
| 225 nM | O=C(c1ccccc1)N1CC(Cn2nnc(-c3ccccc3)n2)(C(=O)O)C1 [Example 1, 1-Benzoyl-3-[(5-phenyl-2H-tetrazol-2-yl)methyl]azetidine-3-carboxylic acid] |
| 61.4 nM | O=C(c1ccccc1)N1CC(Cn2nnc(-c3ccc(Cl)s3)n2)(C(=O)O)C1 [Example 50] |
| 220 nM | O=C(c1ccc(F)cc1)N1CC(Cn2nnc(-c3ccccc3Cl)n2)(C(=O)O)C1 [Example 14] |
| 230 nM | COc1ccc(-c2nnn(CC3(C(=O)O)CN(C(=O)c4c(F)cccc4F)C3)n2)cc1OC [Example 64] |
| 1.02 nM | O=C(c1ccc(Cl)cc1)N1CC(Cn2nnc(-c3cc(Cl)cc(Cl)c3)n2)(C(=O)O)C1 [Example 10] |
| 222 nM | COc1cc(OC)cc(C(=O)N2CC(Cn3nnc(-c4ccc(OC)c(OC)c4)n3)(C(=O)O)C2)c1 [Example 66] |
| 733 nM | O=C(c1ccc(F)cc1)N1CC(Cn2nnc(-c3ccccc3C(F)(F)F)n2)(C(=O)O)C1 [Example 15] |
| 77.8 nM | Cc1ccccc1-c1nnn(CC2(C(=O)O)CN(C(=O)c3ccc(F)cc3)C2)n1 [Example 12] |
| 74.8 nM | O=C(c1ccc(F)cc1)N1CC(Cn2nnc(-c3ccc(F)cc3)n2)(C(=O)O)C1 [Example 26] |
| 325 nM | O=C(c1ccccc1)N1CC(Cn2nnc(-c3c(F)cccc3F)n2)(C(=O)O)C1 [Example 48] |
| 10.3 nM | CCC(=O)Nc1ccc(-c2nnn(CC3(C(=O)O)CN(C(=O)c4ccc(F)cc4)C3)n2)cc1 [Example 32] |
| 76.3 nM | COc1cccc(C(=O)N2CC(Cn3nnc(-c4ccc(OC)c(OC)c4)n3)(C(=O)O)C2)c1 [Example 58] |
| 130 nM | O=C(Nc1cccc(Cl)c1Cl)N1CC(Cn2nnc(-c3ccccc3)n2)(C(=O)O)C1 [Example 67, 1-{[(2,3-dichlorophenyl)amino]carbonyl}-3-[(5-phenyl-2H-tetrazol-2-yl)methyl]azetidine-3-carboxylic acid] |
| 262 nM | O=C(c1ccc(F)cc1)N1CC(Cn2nnc(-c3c(F)cccc3F)n2)(C(=O)O)C1 [Example 42] |

| Ki | SMILES |
| --- | --- |
| 141 nM | O=C(c1ccc(F)cc1)N1CC(Cn2nnc(-c3cccc(Oc4ccccc4)c3)n2)(C(=O)O)C1 [Example 21] |
| 133 nM | O=C(c1ccc(F)cc1)N1CC(Cn2nnc(-c3cc(C(F)(F)F)cc(C(F)(F)F)c3)n2)(C(=O)O)C1 [Example 44] |
| 11.6 nM | COc1cccc(-c2nnn(CC3(C(=O)O)CN(C(=O)c4ccc(F)cc4)C3)n2)c1 [Example 20] |
| 13.7 nM | O=C(c1ccc(F)cc1)N1CC(Cn2nnc(-c3cc(F)cc(Cl)c3)n2)(C(=O)O)C1 [Example 43] |
| 1.64 nM | O=C(c1ccc(Cl)cc1)N1CC(Cn2nnc(-c3ccc(C(F)(F)F)cc3)n2)(C(=O)O)C1 [Example 5] |
| 14.8 nM | Cc1cccc(-c2nnn(CC3(C(=O)O)CN(C(=O)c4ccc(F)cc4)C3)n2)c1 [Example 17] |
| 41.9 nM | COc1ccc(-c2nnn(CC3(C(=O)O)CN(C(=O)c4ccccc4)C3)n2)cc1OC [Example 49] |
| 303 nM | COc1cccc(NC(=O)N2CC(Cn3nnc(-c4cccc(F)c4)n3)(C(=O)O)C2)c1 [Example 68, 3-{[5-(3-fluorophenyl)-2H-tetrazol-2-yl]methyl}-1-{[(3-methoxyphenyl)amino]carbonyl}azetidine-3-carboxylic acid] |
| 10.8 nM | COc1ccc(-c2nnn(CC3(C(=O)O)CN(C(=O)c4ccc(F)cc4)C3)n2)cc1 [Example 28] |
| 14.7 nM | O=C(c1ccc(F)cc1)N1CC(Cn2nnc(-c3ccc(OC(F)F)cc3)n2)(C(=O)O)C1 [Example 30] |
| 959 nM | COc1cccc(C(=O)N2CC(Cn3nnc(Cc4c(F)cccc4Cl)n3)(C(=O)O)C2)c1 [Example 57] |
| 32.5 nM | CCOc1ccccc1C(=O)N1CC(Cn2nnc(-c3ccc(C(F)(F)F)cc3)n2)(C(=O)O)C1 [Example 53] |
| 386 nM | O=C(Nc1cccc(Cl)c1)N1CC(Cn2nnc(-c3cccc(F)c3)n2)(C(=O)O)C1 [Example 70] |
| 87.3 nM | O=C(c1ccc(F)cc1)N1CC(Cn2nnc(-c3ccccc3F)n2)(C(=O)O)C1 [Example 13] |
| 0.423 nM | Cc1ccc(-c2nnn(CC3(C(=O)O)CN(C(=O)c4ccc(Cl)cc4)C3)n2)cc1Cl [Example 8] |
| 44.9 nM | COc1cc(OC)cc(C(=O)N2CC(Cn3nnc(-c4ccc(C(F)(F)F)cc4)n3)(C(=O)O)C2)c1 [Example 46, 1-(3,5-Dimethoxybenzoyl)-3-({5-[4-(trifluoromethyl)phenyl]-2H-tetrazol-2-yl}methyl)azetidine-3-carboxylic acid] |
| 446 nM | CCOc1ccccc1C(=O)N1CC(Cn2nnc(-c3cccc(F)c3)n2)(C(=O)O)C1 [Example 52] |
| 0.816 nM | CCC(=O)Nc1ccc(-c2nnn(CC3(C(=O)O)CN(C(=O)c4ccc(Cl)cc4)C3)n2)cc1 [Example 7] |
